# Test results published in PMC9178925 (Biochemical pharmacology, 2022).
# Values joined by “and” are separate entries in the source; they are usually repeats but may differ in a detail not shown here. Equal values may be shown once.
# Key:
# α1β2γ2S GABAAR = α1β2γ2S GABAAR (Rattus norvegicus, UniProt P62813+P63138); assay type: cell-based, rat (β2 rat or human); settings: 10 μM loreclezole, n = 5 oocytes
# α1β2(N265S)γ2S GABAAR = α1β2(N265S)γ2S GABAAR (Rattus norvegicus, UniProt P62813+P63138, N289S); assay: Two-electrode voltage clamp, potentiation of low GABA currents in oocytes; assay type: cell-based, rat (β2 rat or human); settings: 10 μM loreclezole, n = 4 oocytes
# α1β2γ2L GABAAR [1] = biological target: T1, α1β2γ2L GABAAR (Rattus norvegicus, UniProt P62813+P63138); assay: Two-electrode voltage clamp, concentration-response and mechanistic; assay type: cell-based, rat (β2 rat or human)
# α1β2γ2L GABAAR [2] = biological target: T1, α1β2γ2L GABAAR; assay: Functional competition assay
Structure (SMILES),potentiation of the responses to low GABA (α1β2γ2S GABAAR) [%],potentiation of the responses to low GABA (α1β2(N265S)γ2S GABAAR) [%],EC50 (α1β2γ2L GABAAR [1]) [µM],Kd (α1β2γ2L GABAAR [1]) [µM],"cLor (α1β2γ2L GABAAR [1]; 10 μM GABA, Eq. 1, n = 6 oocytes)","nH (α1β2γ2L GABAAR [1]; loreclezole, 10 μM GABA, Hill equation)","potentiation of the peak response to GABA (α1β2γ2L GABAAR [2]; 10 μM loreclezole, 0.75 μM GABA) [%]","enhancement of the peak response from receptors activated by R(+)-etomidate (α1β2γ2L GABAAR [2]; 10 μM loreclezole, 1 μM R(+)-etomidate) [%]",PA of the peak response (α1β2γ2L GABAAR [2]; 0.2–0.5 μM GABA + 3 μM loreclezole),PA of peak response (α1β2γ2L GABAAR [2]; 2 μM pregnanolone alone)
"Cl/C(=C\n1cncn1)c1ccc(Cl)cc1Cl [loreclezole, reference compound]",269 ± 46,36 ± 6,3.4 ± 0.6,7.1 ± 2,0.251 ± 0.049 and 0.251,1.27 ± 0.41,643 ± 91,395 ± 48,0.08 ± 0.05,
"CC(=O)[C@H]1CC[C@H]2[C@@H]3CC[C@@H]4C[C@H](O)CC[C@]4(C)[C@H]3CC[C@]12C [pregnanolone, 1-[(1S,3aS,3bR,5aR,7R,9aS,9bS,11aS)-7-Hydroxy-9a,11a-dimethylhexadecahydro-1H-cyclopenta[a]phenanthren-1-yl]ethan-1-one, reference compound]",,,,,,,,,,0.005 ± 0.002
